Measurements published in PubChem BioAssay AID1645865 (Buhrlage Lab, Dana-Farber Cancer Institute and Novartis …, 2021).
Active and inactive are the calls of the source.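 Rule for the calls: active = maximal inhibition of the USP30 enzyme reaching 30% or more across the dose series; inactive = the rest.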

Target: Ubiquitin carboxyl-terminal hydrolase 30 (Homo sapiens) (UniProt Q70CQ3)
Experiment: inhibitors of ubiquitin-specific protease 30 deubiquitylating enzyme, concentration dependence, in vitro biochemical, validation of primary hits (AID 1645865)
Settings: purified USP30, Ub-rhodamine cleavage, fluorescence, 2 h

Ubiquitin carboxyl-terminal hydrolase 30 (Homo sapiens), sequence (Q70CQ3 whole entry, looked up): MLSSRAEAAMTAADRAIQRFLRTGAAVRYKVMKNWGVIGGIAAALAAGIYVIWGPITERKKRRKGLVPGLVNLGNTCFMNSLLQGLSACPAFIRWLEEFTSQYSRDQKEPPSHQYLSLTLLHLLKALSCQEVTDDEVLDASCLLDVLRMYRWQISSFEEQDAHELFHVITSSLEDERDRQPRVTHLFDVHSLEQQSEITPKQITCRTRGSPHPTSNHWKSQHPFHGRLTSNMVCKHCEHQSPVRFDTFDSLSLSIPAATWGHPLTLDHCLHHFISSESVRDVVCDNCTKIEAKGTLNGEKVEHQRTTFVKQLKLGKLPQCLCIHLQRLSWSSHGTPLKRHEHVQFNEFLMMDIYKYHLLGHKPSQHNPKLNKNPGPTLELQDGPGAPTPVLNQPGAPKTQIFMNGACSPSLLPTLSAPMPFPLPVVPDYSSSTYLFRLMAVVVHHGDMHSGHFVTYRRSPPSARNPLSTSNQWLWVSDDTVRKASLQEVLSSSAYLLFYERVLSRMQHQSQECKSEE

Row | SMILES | IC50
1 | CN1CC2CN(C(=O)c3ccc(F)cc3)CCN2Cc2ccccc21 (stereo not drawn) | > 50 µM (inactive)
2 | Cn1c(=O)c2cc(C(=O)Nc3ccc(F)cc3)cnc2n(C)c1=O | 25.8 µM
3 | c1coc(CNc2nc(Nc3cccc4ccccc34)nc3ccccc23)c1 | > 50 µM (inactive)
4 | C/C1=C/CC(O)/C=C/C(C)C(O)C(C)/C=C(\C)C(=O)c2c(O)c(C)cc3c2C(=O)C(Cl)=C(NC(=O)\C=C/C=C/C=C\C(C)C(O)CC1=O)C3=O (stereo not drawn) | > 50 µM (inactive)
5 | COc1cc(C(=O)Nc2ccc(-c3csc(C)n3)cc2)cc(OC)c1OC | > 50 µM (inactive)
6 | COc1ccc(C(=O)Nc2ccccc2C(=O)NCc2ccccc2)cc1 | 30.4 µM
7 | COc1ccc(CCNC(=O)COc2ncnc3oc(C)c(C)c23)cc1OC | > 50 µM (inactive)
8 | CCN1C[C@@H]2C[C@]2(c2ccccc2OC)C(=O)c2ncccc21 | > 50 µM (inactive)
9 | O=C(Nc1ccc2nccnc2c1)c1cccc(C(F)(F)F)c1 | > 50 µM (inactive)
10 | O=C(Cn1nnc(-c2ccc(F)cc2)n1)NCCc1ccccc1 | > 50 µM (inactive)
11 | CC(C)(C)c1cc(C[C@@H]2C[C@H](NC(=O)N3CCOCC3)C2(C)C)no1 | 22.2 µM
12 | COc1cccc(C(=O)NCc2[nH]nc3ccccc23)c1 | > 50 µM (inactive)
13 | Cc1ccc2cccc(OCc3nnc(SCC(=O)c4ccc(Cl)cc4)n3C)c2n1 | 2.63 µM
14 | O=C(Cc1ccccc1F)N1CCC2(CC1)CC1(CO2)Nc2ccccc2-n2cccc21 (stereo not drawn) | > 50 µM (inactive)
15 | COc1cc(OC)cc(-c2nc(-c3cn(-c4cccc(F)c4)nn3)no2)c1 | 0.143 µM
16 | O=C(NCc1ccncc1)C1CCN(c2cncnc2N2CCCCC2)CC1 | > 50 µM (inactive)
17 | COc1ccccc1NC(=O)Nc1ccc(NC(=O)c2ccccc2O)cc1 | 29 µM
18 | Cc1ccccc1NC(=O)c1nc(-c2cn(Cc3ccc(F)cc3)nn2)no1 | 3.46 µM
19 | Cc1noc(C)c1S(=O)(=O)Nc1ccc(C(=O)Nc2ccc3c(c2)OCCO3)cc1 | > 50 µM (inactive)

Row | SMILES | IC50
20 | Fc1ccc(Cc2nc(-c3ccc4nncn4c3)no2)cc1 | > 50 µM (inactive)
21 | Cc1ccc(NC(=O)c2ccn(COc3ccc(F)cc3)n2)nc1 | 24.8 µM
22 | COCCNC(=O)c1ccnn1-c1ccc2ccc(-c3cccnc3)cn12 | > 50 µM (inactive)
23 | CC(C)c1cc(Nc2cccc(F)c2)n2nc(-c3cccnc3)nc2n1 | 6.35 µM
24 | O=C(Cn1nc2c3c4c(sc3ncn2c1=O)CCCCC4)Nc1ccc(Cl)cc1F | 1.49 µM
25 | COc1cc2c(c3oc4cccc(O)c4c(=O)c13)C1C=COC1O2 (stereo not drawn) | > 50 µM (inactive)
26 | CCCC[C@@H](C)/C=C(C)/C=C(\C)C(=O)NC1=C[C@](O)(/C=C/C=C/C=C/C(=O)NC2=C(O)CCC2=O)[C@@H]2O[C@@H]2C1=O | 4.76 µM
27 | N#Cc1ccc(Cl)cc1NC(=O)COc1cccnc1[N+](=O)[O-] | > 50 µM (inactive)
28 | Cc1c(C(=O)NCc2cccc(Br)c2)oc2c1-c1[nH]ncc1CC2 | > 50 µM (inactive)
29 | Cc1ccccc1C(=O)OCCN1C(=O)c2cccc3c(N4CCCCC4)ccc(c23)C1=O | > 50 µM (inactive)
30 | Cc1ccc2cc3c(nc2n1)CCN(Cc1ccc(F)cc1)C3 | > 50 µM (inactive)
31 | CN(C)c1ccc(CCN2CCc3nc4cccnc4cc3C2)cc1 | > 50 µM (inactive)
32 | Cc1ccc(-c2csc(-n3ncc(C(=O)N4CCN(C(=O)Nc5cccc6ccccc56)C(C)C4)c3C(C)C)n2)cc1 (stereo not drawn) | > 50 µM (inactive)
33 | COc1ccccc1CNC(=O)Nc1cccc2ccccc12 | 25.9 µM
34 | CCOc1ccccc1NC(=O)Cn1c(=O)n(CCCC(=O)NCc2ccc(C)cc2)c(=O)c2sccc21 | 2.53 µM
35 | COc1ccc(CC(NC(C)=O)C(=O)NC2CCN(c3c(Cc4ccccc4)c(C)nc4ncnn34)CC2)cc1OC (stereo not drawn) | > 50 µM (inactive)
36 | O=C(NCc1cccc(NC(=O)C2CC2)c1)Nc1cccc2ccccc12 | 21.7 µM
37 | Cc1cc(N2CCN(c3ncccn3)CC2)nc2ccc(NC(=O)c3ccncc3)cc12 | 2.68 µM
38 | O=C(NCc1ccc2c(c1)OCO2)c1cc2c(s1)-c1ccccc1OC2 | 3.58 µM
